Laboratory results from patent US7317030B2, “Compounds as inhibitors of cell proliferation and viral infections” (4SC AG, priority 2004, dated 2008).

Biological target: T1, Kv1.3 channels (Mus musculus, UniProt P16390)
T1 construct: expressed in transfected cells; host or cells: L929 cells, stably transfected
Experiment: Kv1.3 assay, whole-cell patch-clamp in stably transfected L929 cells
Type: cell-based
Details: c=20 μM, two cells per compound
Method: The inhibition of Kv1.3 was measured in stable transfected cell lines expressing mouse Kv1.3 using the patch-clamp technique (Rauer H et al. J Biol Chem Vol. 275, No. 2, 1201-1208, 2000), Rauer H Mol Pharmacol, 50, 1625-1634, 1996, Rauer H et al. J Pharmacol, 127, 1065-1074, 1999).
Stable transfected L929 cells with Kv1.3 channels were grown in DMEM (Glutamax-I) media with 10% FCS, geneticin 330 μg/ml under 10% CO2 atmosphere.
Whole-cell patch-clamp configuration, with an external bath solution of 160 mM NaCl, 4, 5 mM KCl, 1 mM MgCl, 2 mM CaCl2, 5 mM HEPES, 10 mM EGTA and NaOH adjusted to pH 7.4. Internal pipette solution for recording was 155 mM KF, 2 mM MgCl2, 10 mM HEPES, 10 mM EGTA with KOH adjusted to pH 7.2. Currents were activated by a 200-ms voltage step from a holding potential of −80 to 40 mV every 30 s. Holding potential −80 mV.
Each compound was tested on two different cells. The cell was perfused with external bath solution (black line), then the compound was applied (c=20 μM). The resulting stedy-state current traces are shown as red lines. Example 3, 5, 6, 7, 8 are blockers.

T1 sequence (P16390 whole entry): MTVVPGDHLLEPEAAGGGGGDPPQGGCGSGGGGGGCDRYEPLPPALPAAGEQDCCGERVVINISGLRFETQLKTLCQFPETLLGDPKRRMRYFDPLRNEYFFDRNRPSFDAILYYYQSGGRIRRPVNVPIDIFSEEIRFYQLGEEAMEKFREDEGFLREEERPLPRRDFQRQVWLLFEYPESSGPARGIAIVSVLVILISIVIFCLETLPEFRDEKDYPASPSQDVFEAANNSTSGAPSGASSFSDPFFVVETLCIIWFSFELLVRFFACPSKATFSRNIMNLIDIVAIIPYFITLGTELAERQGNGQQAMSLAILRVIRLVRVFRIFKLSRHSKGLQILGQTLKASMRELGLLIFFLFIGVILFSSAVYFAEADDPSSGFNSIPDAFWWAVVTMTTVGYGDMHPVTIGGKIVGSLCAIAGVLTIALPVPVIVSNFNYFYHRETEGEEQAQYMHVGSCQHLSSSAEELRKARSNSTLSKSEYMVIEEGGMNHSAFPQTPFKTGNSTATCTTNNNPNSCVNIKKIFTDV

O=C(Nc1ccc(C2=N[C@H](Cc3ccccc3)CO2)cc1)Nc1ccc(S(=O)(=O)NCc2cc(F)c(F)c(F)c2)cc1 [Example 3, 4-{3-[4-(4-(R)-Benzyl-4,5-dihydro-oxazol-2-yl)-phenyl]-ureido}-N-(3,4,5-trifluoro-benzyl)-benzenesulfonamide] was tested. Which Kv1.3 channel block did it give?
The Kv1.3 channel block was “blockers”.

With O=C(Nc1cccc(C2=N[C@H](c3ccccc3)CO2)c1)Nc1cccc(C(F)(F)F)c1 [Example 5, 1-[3-(4-(R)-Phenyl-4,5-dihydro-oxazol-2-yl)-phenyl]-3-(3-trifluoromethyl-phenyl)-urea] as the compound, how does the Kv1.3 channel block read?
Its Kv1.3 channel block is “blockers”.

For O=C(Nc1cccc(C2=N[C@@H](c3ccccc3)CO2)c1)Nc1cccc(C(F)(F)F)c1 [Example 6, 1-[3-(4-(S)-Phenyl-4,5-dihydro-oxazol-2-yl)-phenyl]-3-(3-trifluoromethyl-phenyl)-urea], which Kv1.3 channel block is on record?
Its Kv1.3 channel block is “blockers”.

How did the Kv1.3 channel block turn out when O=C(Nc1cccc(C2=N[C@H](Cc3ccccc3)CO2)c1)Nc1cccc(C(F)(F)F)c1 [Example 7, 1-[3-(4-(R)-Benzyl-4,5-dihydro-oxazol-2-yl)-phenyl]-3-(3-trifluoromethyl-phenyl)-urea] was run?
The Kv1.3 channel block was “blockers”.

Which Kv1.3 channel block does the source give for O=C(Nc1cccc(C2=N[C@@H](Cc3ccccc3)CO2)c1)Nc1cccc(C(F)(F)F)c1 [Example 8, 1-[3-(4-(S)-Benzyl-4,5-dihydro-oxazol-2-yl)-phenyl]-3-(3-trifluoromethyl-phenyl)-urea] here?
The Kv1.3 channel block was “blockers”.

Biological target: IMPDH
Experiment: IMPDH enzyme assay (NADH release at 340 nm)
Type: biochemical, human
Details: 0.2 mM IMP, 0.4 mM NAD, 37° C.
Method: IMPDH Enzyme-Assay: For measuring IMPDH activity in vitro, the substrate inosine monophosphate (IMP) and enzyme, with or without inhibitor, are mixed together. […] The released NADH is measured at 340 nm. The assay is performed in PMMA half micro liter cuvettes, the total assay volume is 1 mL. 500 μl of 2× assay buffer (200 mM Tris/HCl, pH 8.0, 200 mM KCl, 6 mM EDTA and 4 mM DTT) are mixed with 10 μL of a freshly prepared 20 mM IMP solution (0.2 mM final concentration) and 10 μL of enzyme (0.03 U/mL). An appropriate amount of inhibitor is dissolved in 100% DMSO. 10 μL of this solution are added to the assay mix (1% DMSO final concentration). Finally 455 μL of deionized water are added to give the final volume of 1 mL. The mixture is incubated for 10 min at 37° C. The enzyme reaction is started by addition of 25 μL of a 16 mM NAD solution (0.4 mM final concentration). Reaction is followed for 30 min at 37° C. at 340 nm. The enzyme reaction runs linear with respect to time during the 30 min. The slopes of the resulting curves are calculated and results are presented in % of residual activity, which is calculated as % activity=(slope with inhibitor/slope without inhibitor) *100. For the determination of the IC50 values (concentration of inhibitor required for 50% inhibition) at least four different inhibitor concentrations were applied. Each data point was recorded in triplicates. […]

How did the IC50 turn out when COc1cc(NC(=O)Nc2ccc(S(=O)(=O)N3CCOCC3)cc2)ccc1C#N [Example 15, 1-(4-Cyano-3-methoxy-phenyl)-3-[4-(morpholine-4-sulfonyl)-phenyl]-urea] was run?
The IC50 was < 5 µM.
